Laboratory results as given in patent US10961278B2, “Vancomycin derivative, preparation method, pharmaceutical composition and use thereof” (SHANGHAI INSTITUTE OF MATERIA MEDICA, CHINESE ACADEMY OF …, priority 2016, dated 2021).
≈ marks a conversion by molar mass, not a printed value. Read-outs that look alike come from different tables or passages of the source.

Key:
[1] = test system: vancomycin-sensitive Staphylococcus aureus Newman strain; experiment: In vitro antibacterial activity assay (MIC, CLSI dilution method); assay type: cell-based; settings: 16 h, S. aureus Newman, 37° C.; for MIC: Staphylococcus aureus
[2] = test system: vancomycin-middle resistant Staphylococcus aureus Mu50 strain; experiment: as above; assay type: cell-based; settings: 16 h; for MIC: Staphylococcus aureus, read-out: MIC Mu50

Row | Compound | MIC ([1]; NEWMAN) | MIC ([2]; S. aureus Mu50, 37° C.) | other results
1 | CCCCCCCCCCC(=O)NC1(C)C[C@H](O[C@H]2C(Oc3c4cc5cc3Oc3ccc(cc3Cl)[C@@H](O)[C@@H](NC(=O)[C@@H](CC(C)C)NC)C(=O)N[C@@H](CC(N)=O)C(=O)N[C@H]5C(=O)N[C@H]3C(=O)N[C@H](C(=O)N[C@H](C(=O)O)c5cc(O)c(CNCCCNC(=O)[C@H](O)[C@@H](O)[C@H](O)[C@H](O)CO)c(O)c5-c5cc3ccc5O)[C@H](O)c3ccc(c(Cl)c3)O4)O[C@H](CO)C(O)C2O)CC(C)[C@H]1O (some centres unmarked) [Van025] | 16 µg/mL (≈ 8.51 µM) | 32 µg/mL (≈ 17 µM) | –
2 | CCCCCCCCCCNCCNC1(C)C[C@H](O[C@H]2C(Oc3c4cc5cc3Oc3ccc(cc3Cl)[C@@H](O)[C@@H](NC(=O)[C@@H](CC(C)C)NC)C(=O)N[C@@H](CC(N)=O)C(=O)N[C@H]5C(=O)N[C@H]3C(=O)N[C@H](C(=O)N[C@H](C(=O)O)c5cc(O)c(CNCCO[C@@H]6OC(CO)[C@@H](O)C(O)C6O)c(O)c5-c5cc3ccc5O)[C@H](O)c3ccc(c(Cl)c3)O4)O[C@H](CO)C(O)C2O)OC(C)[C@H]1O (some centres unmarked) [Van004] | 1 µg/mL (≈ 0.535 µM) | 4 µg/mL (≈ 2.14 µM) | –
3 | CCCCCCCCCCNCCNC1(C)C[C@H](O[C@H]2C(Oc3c4cc5cc3Oc3ccc(cc3Cl)[C@@H](O)[C@@H](NC(=O)[C@@H](CC(C)C)NC)C(=O)N[C@@H](CC(N)=O)C(=O)N[C@H]5C(=O)N[C@H]3C(=O)N[C@H](C(=O)N[C@H](C(=O)O)c5cc(O)c(CNCCCNC(=O)[C@H](O)[C@@H](O)[C@H](O)[C@H](O)CO)c(O)c5-c5cc3ccc5O)[C@H](O)c3ccc(c(Cl)c3)O4)O[C@H](CO)C(O)C2O)OC(C)[C@H]1O (some centres unmarked) [Van009] | 0.5 µg/mL (≈ 0.264 µM) | 1 µg/mL (≈ 0.527 µM) | –
4 | CN[C@H](CC(C)C)C(=O)N[C@H]1C(=O)N[C@@H](CC(N)=O)C(=O)N[C@H]2C(=O)N[C@H]3C(=O)N[C@H](C(=O)N[C@H](C(=O)O)c4cc(O)c(CNCCCNC(=O)[C@H](O)[C@@H](O)[C@H](O)[C@H](O)CO)c(O)c4-c4cc3ccc4O)[C@H](O)c3ccc(c(Cl)c3)Oc3cc2cc(c3OC2O[C@H](CO)C(O)C(O)[C@H]2O[C@@H]2CC(C)[C@@H](O)C(C)(NCc3ccc(-c4ccc(Cl)cc4)cc3)C2)Oc2ccc(cc2Cl)[C@H]1O (some centres unmarked) [Van014] | – | – | MIC [1]: 0.25 µg/mL (≈ 0.131 µM); MIC [2]: 0.125 µg/mL (≈ 0.0654 µM)
5 | CN[C@H](CC(C)C)C(=O)N[C@H]1C(=O)N[C@@H](CC(N)=O)C(=O)N[C@H]2C(=O)N[C@@H]3C(=O)N[C@H](C(=O)N[C@H](C(=O)NCCCNC(=O)[C@H](O)[C@@H](O)[C@H](O)[C@H](O)CO)c4cc(O)cc(O)c4-c4cc3ccc4O)[C@H](O)c3ccc(c(Cl)c3)Oc3cc2cc(c3OC2O[C@H](CO)C(O)C(O)[C@H]2O[C@H]2CC(C)(NCc3ccc(-c4ccc(Cl)cc4)cc3)[C@H](O)C(C)O2)Oc2ccc(cc2Cl)[C@H]1O (some centres unmarked) [Van023] | – | – | MIC [1]: 2 µg/mL (≈ 1.06 µM); MIC [2]: 4 µg/mL (≈ 2.12 µM)
6 | CCCCCCCCCCNCCNC1(C)C[C@H](O[C@H]2C(Oc3c4cc5cc3Oc3ccc(cc3Cl)[C@@H](O)[C@@H](NC(=O)[C@@H](CC(C)C)NC)C(=O)N[C@@H](CC(N)=O)C(=O)N[C@H]5C(=O)N[C@H]3C(=O)N[C@H](C(=O)N[C@H](C(=O)O)c5cc(O)c(CNCCO[C@@H]6OC(CO)[C@H](O)C(O)C6O)c(O)c5-c5cc3ccc5O)[C@H](O)c3ccc(c(Cl)c3)O4)O[C@H](CO)C(O)C2O)OC(C)[C@H]1O (some centres unmarked) [Van002] | 0.5 µg/mL (≈ 0.268 µM) | 2 µg/mL (≈ 1.07 µM) | –
7 | CCCCCc1ccc(CNC2(C)C[C@H](O[C@H]3C(Oc4c5cc6cc4Oc4ccc(cc4Cl)[C@@H](O)[C@@H](NC(=O)[C@@H](CC(C)C)NC)C(=O)N[C@@H](CC(N)=O)C(=O)N[C@H]6C(=O)N[C@H]4C(=O)N[C@H](C(=O)N[C@H](C(=O)O)c6cc(O)c(CNCCCNC(=O)[C@H](O)[C@@H](O)[C@H](O)[C@H](O)CO)c(O)c6-c6cc4ccc6O)[C@H](O)c4ccc(c(Cl)c4)O5)O[C@H](CO)C(O)C3O)CC(C)[C@H]2O)cc1 (some centres unmarked) [Van031] | 0.125 µg/mL (≈ 0.0668 µM) | 0.5 µg/mL (≈ 0.267 µM) | –
8 | CCc1ccc(CNC2(C)C[C@H](O[C@H]3C(Oc4c5cc6cc4Oc4ccc(cc4Cl)[C@@H](O)[C@@H](NC(=O)[C@@H](CC(C)C)NC)C(=O)N[C@@H](CC(N)=O)C(=O)N[C@H]6C(=O)N[C@H]4C(=O)N[C@H](C(=O)N[C@H](C(=O)O)c6cc(O)c(CNCCCNC(=O)[C@H](O)[C@@H](O)[C@H](O)[C@H](O)CO)c(O)c6-c6cc4ccc6O)[C@H](O)c4ccc(c(Cl)c4)O5)O[C@H](CO)C(O)C3O)CC(C)[C@H]2O)cc1 (some centres unmarked) [Van018] | 4 µg/mL (≈ 2.19 µM) | 8 µg/mL (≈ 4.37 µM) | –
9 | CN[C@H](CC(C)C)C(=O)N[C@H]1C(=O)N[C@@H](CC(N)=O)C(=O)N[C@H]2C(=O)N[C@H]3C(=O)N[C@H](C(=O)N[C@H](C(=O)O)c4cc(O)c(CNCCCNC(=O)[C@H](O)[C@@H](O)[C@H](O)[C@H](O)CO)c(O)c4-c4cc3ccc4O)[C@H](O)c3ccc(c(Cl)c3)Oc3cc2cc(c3OC2O[C@H](CO)C(O)C(O)[C@H]2O[C@@H]2CC(C)[C@@H](O)C(C)(NCc3cccc4ccccc34)C2)Oc2ccc(cc2Cl)[C@H]1O (some centres unmarked) [Van027] | 1 µg/mL (≈ 0.54 µM) | 4 µg/mL (≈ 2.16 µM) | –
10 | C#Cc1ccc(CNC2(C)C[C@H](O[C@H]3C(Oc4c5cc6cc4Oc4ccc(cc4Cl)[C@@H](O)[C@@H](NC(=O)[C@@H](CC(C)C)NC)C(=O)N[C@@H](CC(N)=O)C(=O)N[C@H]6C(=O)N[C@H]4C(=O)N[C@H](C(=O)N[C@H](C(=O)O)c6cc(O)c(CNCCCNC(=O)[C@H](O)[C@@H](O)[C@H](O)[C@H](O)CO)c(O)c6-c6cc4ccc6O)[C@H](O)c4ccc(c(Cl)c4)O5)O[C@H](CO)C(O)C3O)CC(C)[C@H]2O)cc1 (some centres unmarked) [Van029] | 4 µg/mL (≈ 2.19 µM) | 8 µg/mL (≈ 4.38 µM) | –
11 | CCCCCCCCCCNCCNC1(C)C[C@H](O[C@@H]2C(O)C(O)[C@@H](CO)O[C@H]2Oc2c3cc4cc2Oc2ccc(cc2Cl)[C@@H](O)[C@@H](NC(=O)[C@@H](CC(C)C)NC)C(=O)N[C@@H](CC(N)=O)C(=O)N[C@H]4C(=O)N[C@@H]2C(=O)N[C@H](C(=O)N[C@H](C(=O)O)c4cc(O)c(CNCCO)c(O)c4-c4cc2ccc4O)[C@H](O)c2ccc(c(Cl)c2)O3)O[C@@H](C)[C@H]1O (some centres unmarked) [Van005] | 1 µg/mL (≈ 0.586 µM) | 4 µg/mL (≈ 2.35 µM) | –
12 | CCCCCCCCCNC1(C)C[C@H](O[C@H]2C(Oc3c4cc5cc3Oc3ccc(cc3Cl)[C@@H](O)[C@@H](NC(=O)[C@@H](CC(C)C)NC)C(=O)N[C@@H](CC(N)=O)C(=O)N[C@H]5C(=O)N[C@H]3C(=O)N[C@H](C(=O)N[C@H](C(=O)O)c5cc(O)c(CNCCCNC(=O)[C@H](O)[C@@H](O)[C@H](O)[C@H](O)CO)c(O)c5-c5cc3ccc5O)[C@H](O)c3ccc(c(Cl)c3)O4)O[C@H](CO)C(O)C2O)CC(C)[C@H]1O (some centres unmarked) [Van019] | 0.5 µg/mL (≈ 0.272 µM) | 2 µg/mL (≈ 1.09 µM) | –
13 | CCCCCCCCCCNCCNC1(C)C[C@H](O[C@@H]2C(O)C(O)[C@@H](CO)O[C@H]2Oc2c3cc4cc2Oc2ccc(cc2Cl)[C@@H](O)[C@@H](NC(=O)[C@@H](CC(C)C)NC)C(=O)N[C@@H](CC(N)=O)C(=O)N[C@H]4C(=O)N[C@@H]2C(=O)N[C@H](C(=O)N[C@H](C(=O)O)c4cc(O)c(CNC5C(O)OC(CO)[C@@H](O)[C@@H]5O)c(O)c4-c4cc2ccc4O)[C@H](O)c2ccc(c(Cl)c2)O3)O[C@@H](C)[C@H]1O (some centres unmarked) [Van007] | – | – | MIC Newman [1]: 4 µg/mL (≈ 2.19 µM); MIC Mu50 ([2]; S. aureus Mu50, 37° C.): 8 µg/mL (≈ 4.39 µM)
14 | CCCCCCCCCCNCCNC1(C)C[C@H](O[C@H]2C(Oc3c4cc5cc3Oc3ccc(cc3Cl)[C@@H](O)[C@@H](NC(=O)[C@@H](CC(C)C)NC)C(=O)N[C@@H](CC(N)=O)C(=O)N[C@H]5C(=O)N[C@H]3C(=O)N[C@H](C(=O)N[C@H](C(=O)O)c5cc(O)c(CNCCO[C@@H]6OC(CO)[C@@H](O)C(O)C6NC(C)=O)c(O)c5-c5cc3ccc5O)[C@H](O)c3ccc(c(Cl)c3)O4)O[C@H](CO)C(O)C2O)OC(C)[C@H]1O (some centres unmarked) [Van003] | 4 µg/mL (≈ 2.1 µM) | 16 µg/mL (≈ 8.38 µM) | –
15 | CCCCOc1ccc(CNC2(C)C[C@H](O[C@H]3C(Oc4c5cc6cc4Oc4ccc(cc4Cl)[C@@H](O)[C@@H](NC(=O)[C@@H](CC(C)C)NC)C(=O)N[C@@H](CC(N)=O)C(=O)N[C@H]6C(=O)N[C@H]4C(=O)N[C@H](C(=O)N[C@H](C(=O)O)c6cc(O)c(CNCCCNC(=O)[C@H](O)[C@@H](O)[C@H](O)[C@H](O)CO)c(O)c6-c6cc4ccc6O)[C@H](O)c4ccc(c(Cl)c4)O5)O[C@H](CO)C(O)C3O)CC(C)[C@H]2O)cc1 (some centres unmarked) [Van030] | 1 µg/mL (≈ 0.534 µM) | 2 µg/mL (≈ 1.07 µM) | –
16 | CCCCCc1ccc(CNC2(C)C[C@H](O[C@@H]3C(O)C(O)[C@@H](CO)O[C@H]3Oc3c4cc5cc3Oc3ccc(cc3Cl)[C@@H](O)[C@@H](NC(=O)[C@@H](CC(C)C)NC)C(=O)N[C@@H](CC(N)=O)C(=O)N[C@H]5C(=O)N[C@@H]3C(=O)N[C@H](C(=O)N[C@H](C(=O)O)c5cc(O)c(CNC6C(O)OC(CO)[C@H](O)[C@@H]6O)c(O)c5-c5cc3ccc5O)[C@H](O)c3ccc(c(Cl)c3)O4)O[C@@H](C)[C@H]2O)cc1 (some centres unmarked) [Van036] | – | – | MIC [1]: 0.25 µg/mL (≈ 0.139 µM); MIC [2]: 0.5 µg/mL (≈ 0.278 µM)
17 | CCCCCCCCCCNC1(C)C[C@H](O[C@@H]2C(O)C(O)[C@@H](CO)O[C@H]2Oc2c3cc4cc2Oc2ccc(cc2Cl)[C@@H](O)[C@@H](NC(=O)[C@@H](CC(C)C)NC)C(=O)N[C@@H](CC(N)=O)C(=O)N[C@H]4C(=O)N[C@@H]2C(=O)N[C@H](C(=O)N[C@H](C(=O)O)c4cc(O)c(CNC5C(O)OC(CO)[C@H](O)[C@@H]5O)c(O)c4-c4cc2ccc4O)[C@H](O)c2ccc(c(Cl)c2)O3)O[C@@H](C)[C@H]1O (some centres unmarked) [Van034] | ≤ 0.0625 µg/mL | 0.25 µg/mL (≈ 0.14 µM) | –
18 | CCCCCCCCCCNCCNC1(C)C[C@H](O[C@@H]2C(O)C(O)[C@@H](CO)O[C@H]2Oc2c3cc4cc2Oc2ccc(cc2Cl)[C@@H](O)[C@@H](NC(=O)[C@@H](CC(C)C)NC)C(=O)N[C@@H](CC(N)=O)C(=O)N[C@H]4C(=O)N[C@@H]2C(=O)N[C@H](C(=O)N[C@H](C(=O)O)c4cc(O)c(CNC5C(O)OC(CO)[C@@H](O)[C@@H]5O)c(O)c4-c4cc2ccc4O)[C@H](O)c2ccc(c(Cl)c2)O3)O[C@@H](C)[C@H]1O (some centres unmarked) [Van006] | 8 µg/mL (≈ 4.39 µM) | – | MIC Mu50 ([2]; S. aureus Mu50, 37° C.): 32 µg/mL (≈ 17.5 µM)
19 | CCCCCCCCCC(=O)NC1(C)C[C@H](O[C@H]2C(Oc3c4cc5cc3Oc3ccc(cc3Cl)[C@@H](O)[C@@H](NC(=O)[C@@H](CC(C)C)NC)C(=O)N[C@@H](CC(N)=O)C(=O)N[C@H]5C(=O)N[C@H]3C(=O)N[C@H](C(=O)N[C@H](C(=O)O)c5cc(O)c(CNCCCNC(=O)[C@H](O)[C@@H](O)[C@H](O)[C@H](O)CO)c(O)c5-c5cc3ccc5O)[C@H](O)c3ccc(c(Cl)c3)O4)O[C@H](CO)C(O)C2O)CC(C)[C@H]1O (some centres unmarked) [Van026] | 32 µg/mL (≈ 17.2 µM) | 64 µg/mL (≈ 34.3 µM) | –
